# Where a SMILES comes first, the peptide text is derived from it.
# Legend:
# [1] = test system: DRB1*0401-Tg mice (DR4 Tg); experiment: Activity of HTL epitopes, ELISPOT of CD4+ cells, pooled samples; format: in vivo, mouse; details: Table 26, 2 experiments
# Method: (§1) The experiments to test the immunogenicity of HLA-DR peptides differs slightly from example 6 in that complete Freund's is used as the adjuvant. Peptides are tested in either DRB1*0401-Tg mice or surrogate mice such as Balb/c and CBA. In this particular example, HLA-restricted peptide responses are analyzed in pooled samples.
# [2] = molecular target: HLA-B44; experiment: HLA class I competition binding assay using soluble HLA (125I probe peptide); parameters: species or system human; details: Table 23; read-out: nM IC50 B*4402
# [3] = test system: HLA-B44 in surrogate mice (CBA); experiment: Immunogenicity of CTL peptides, IFN-γ ELISPOT; details: Table 23
# [4] = molecular target: T1, HLA-A02 (Homo sapiens, UniProt P04439, D140Y/D185E/D98H/E176V/E277Q/G131W/G231S/I119V/I121R/I166T/I218V/L300P/L318F/N151K/N90K/P208A/P217A/Q86G/Q94H/R138H/R169H/T345S); experiment: HLA class I competition binding assay using soluble HLA (125I probe peptide)
# T1 construct: endogenous in cells; host or cells: EBV-transformed homozygous cell lines, fibroblasts or transfectants
# [5] = test system: Balb/c (H2^bxd) mice; experiment: Activity of HTL epitopes, ELISPOT of CD4+ cells, pooled samples; format: in vivo, mouse; details: Table 27, 2 experiments
# Method: as §1
compound,measurement,setting,value
CC(C)C[C@H](NC(=O)[C@@H](NC(=O)[C@@H](NC(=O)[C@@H](N)CC(C)C)C(C)C)C(C)C)C(=O)N[C@@H](C)C(=O)N[C@H](C(=O)N[C@@H](C)C(=O)N[C@H](C(=O)N1CCC[C@H]1C(=O)N1CCC[C@H]1C(=O)NCC(=O)N[C@@H](CO)C(=O)N[C@H](C(=O)N[C@H](C(=O)N[C@H](C(=O)O)C(C)C)[C@@H](C)O)C(C)C)[C@@H](C)O)[C@@H](C)O (H-LVVLATATPPGSVTV-OH; N-terminus and C-terminus assumed),Immunized SFC/10^6 ± St Error,[1],111.7 ± 42.3 SFC/10^6
AEQFKOKAL,IC50,[2],67 nM
same,Immunized SFC/10^6 ± St Error,[3],7.9 ± 6.7 SFC/10^6
CC[C@H](C)[C@H](NC(=O)[C@H](Cc1c[nH]cn1)NC(=O)[C@@H](NC(=O)[C@H](CC(C)C)NC(=O)CNC(=O)[C@@H](NC(=O)[C@H](Cc1ccccc1)NC(=O)[C@@H](NC(=O)[C@@H](N)CO)C(C)C)[C@@H](C)O)[C@@H](C)O)C(=O)O,IC50,[4],0.101 µM
CC[C@H](C)[C@H](NC(=O)CNC(=O)[C@@H](NC(=O)[C@H](C)N)C(C)C)C(=O)N[C@@H](Cc1ccccc1)C(=O)N[C@@H](CCCNC(=N)N)C(=O)N[C@@H](C)C(=O)N[C@@H](C)C(=O)N[C@H](C(=O)N[C@@H](CS)C(=O)N[C@H](C(=O)N[C@@H](CCCNC(=N)N)C(=O)NCC(=O)N[C@H](C(=O)N[C@@H](C)C(=O)O)C(C)C)[C@@H](C)O)C(C)C,Immunized SFC/10^6 ± St Error,[5],1330.4 ± 111.9 SFC/10^6

# From US20100099613A1, “PEPTIDES FOR INDUCING A CTL AND/OR HTL RESPONSE TO HEPATITIS C VIRUS” (GENIMMUNE, priority 2004, published 2010)
